Test results: US9468650B2, “Inhibition of endosomal toll-like receptor activation” (DUKE UNIVERSITY, priority 2009, dated 2016)

Assays:
mammalian cell lines = details: cited from earlier work
[1] = mouse, in vivo, 40 mg/kg
TLR3 = assay: Cytokine production (TNFα, IL-6) of murine macrophage Raw264.7 stimulated with poly I:C; type: cell-based; details: TNFα and IL-6 by ELISA
[2] = mouse, in vivo; cited from earlier work

Substance: Poly(allylamine) [PAL]
- cytotoxicity (remark) (mammalian cell lines): 1. Commercially available. 2. Highly positive charged 3. Low toxicity.

Substance: Polyethyleneimine [PEI]
- cytotoxicity (remark) (mammalian cell lines): 3. high cytotoxicity.

Substance: polyamidoamine dendrimer, 1,4-diaminobutane core, G3 [PAMAM]
- adverse effects on viability of mice [1]: no adverse effects on viability
- concentration inducing over 50% cell death (Raw264.7 cells): about 160 μg/ml

Substance: protamine [reference compound]
- concentration inducing over 50% cell death (Raw264.7 cells): ~280 µg/mL
- effect on poly I:C (TLR3 ligand) induced inflammatory cytokine production (TLR3): did not block but significantly enhanced

Substance: β-cyclodextrin-containing polycation [CDP]
- LD50 [2]: 200 mg/kg
- adverse effects on viability of mice [1]: no adverse effects on viability
- tolerability on macrophages (Raw264.7 cells): well tolerated
